Laboratory results reported in US20220281876A1, “DEGRADATION OF BRUTON'S TYROSINE KINASE (BTK) BY CONJUGATION OF BTK INHIBITORS WITH E3 LIGASE LIGAND AND METHODS OF USE” (BEIGENE, LTD., priority 2019, published 2022).

These compounds were tested against T1, BTK (Homo sapiens, UniProt Q06187) (assay: BTK cell degradation in Ramos cells (total BTK ELISA)). Conditions: 16 h incubation, FastScan total BTK ELISA.
T1 construct: endogenous in cells; host or cells: Ramos cells
Format: cell-based
Protocol: Ramos cells are treated with compounds diluted in 0.1% DMSO, dilution is done according to the following protocol: (1) make 1000x stock solution in DMSO from 10 mM by 5-fold dilution, total 7 doses were included; (2) make 10x solution in cell culture medium by transferring 1 ul 1000x stock solution into 99 ul medium; (3) 11 ul of 10× solution is added to cells and incubate for 16 h.
Cells in 96 well plate are harvested by centrifugation (1200 rpm), and wash once with ice-cold PBS. Then, 100 ul 1×cell extraction buffer is added in each well. The cells are placed on a shaker for 20 min at 4° C.; 5 ul lysate is transferred to 45 ul of 1×cell extraction buffer in ELISA plate, and 50 ul of the antibody cocktail is added in each well; seal the plate and incubate 1 hour at room temperature on a plate shaker; medium is discarded from the plate, tap the plated on a paper towel, wash 3×200 ul ELISA wash buffer; add 100 ul of TMB to each well and incubate the plate in the dark for 15 min at room temperature on a shaker; add 100 ul of STOP solution to each well; read absorbance at 450 nm. The BTK ELISA assay was performed using FastScan total BTK ELISA kit (Cell Signaling Cat #36609).

T1 sequence (Q06187 whole entry): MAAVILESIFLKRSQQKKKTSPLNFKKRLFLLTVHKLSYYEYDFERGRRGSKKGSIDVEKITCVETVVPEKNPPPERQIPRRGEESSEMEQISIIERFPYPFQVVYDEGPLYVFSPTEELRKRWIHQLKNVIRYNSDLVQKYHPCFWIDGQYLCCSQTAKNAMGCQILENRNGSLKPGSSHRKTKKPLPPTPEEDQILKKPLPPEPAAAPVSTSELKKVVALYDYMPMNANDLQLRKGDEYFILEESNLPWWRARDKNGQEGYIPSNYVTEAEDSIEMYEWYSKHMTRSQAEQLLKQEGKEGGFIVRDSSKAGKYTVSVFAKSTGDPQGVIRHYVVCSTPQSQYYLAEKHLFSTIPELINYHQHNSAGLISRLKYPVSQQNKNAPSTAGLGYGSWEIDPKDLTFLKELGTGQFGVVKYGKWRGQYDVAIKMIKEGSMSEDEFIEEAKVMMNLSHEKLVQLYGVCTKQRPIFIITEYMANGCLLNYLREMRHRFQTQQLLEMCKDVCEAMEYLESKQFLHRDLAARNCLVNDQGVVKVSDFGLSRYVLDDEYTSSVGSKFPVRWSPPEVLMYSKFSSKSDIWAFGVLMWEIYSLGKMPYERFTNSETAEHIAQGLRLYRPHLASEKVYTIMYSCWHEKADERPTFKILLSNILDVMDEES

First: NC(=O)c1c(-c2ccc(Oc3ccccc3)cc2)nn2c1NCC[C@H]2C1CCN(C(=O)CCc2ccc(N3CCN(c4ccc5c(c4)C(=O)N(C4CCC(=O)NC4=O)C5=O)CC3)cc2)CC1 (stereo partly drawn) [Example 40, (7S)-7-(1-(3-(4-(4-(2-(2,6-dioxopiperidin-3-yl)-1,3-dioxoisoindolin-5-yl)piperazin-1-yl)phenyl)propanoyl)piperidin-4-yl)-2-(4-phenoxyphenyl)-4,5,6,7-tetrahydropyrazolo[1,5-a]pyrimidine-3-carboxamide]
Second: NC(=O)c1c(-c2ccc(Oc3ccccc3)cc2)nn2c1NCC[C@H]2C1CCN(C(=O)CCCc2ccc(N3CCN(c4ccc5c(c4)C(=O)N(C4CCC(=O)NC4=O)C5=O)CC3)cc2)CC1 (stereo partly drawn) [Example 44, (7S)-7-(1-(4-(4-(4-(2-(2,6-dioxopiperidin-3-yl)-1,3-dioxoisoindolin-5-yl)piperazin-1-yl)phenyl)butanoyl)piperidin-4-yl)-2-(4-phenoxyphenyl)-4,5,6,7-tetrahydropyrazolo[1,5-a]pyrimidine-3-carboxamide]
The DC50 of the first is lower: 74 nM for the first, > 10000 nM for the second.

Compared with NC(=O)c1c(-c2ccc(Oc3ccccc3)cc2)nn2c1NCC[C@H]2C1CCN(C(=O)COCCOCCNC(=O)CCCN2CCN(c3ccc4c(c3)C(=O)N(C3CCC(=O)NC3=O)C4=O)CC2)CC1 (stereo partly drawn) [Example 42, (7S)-7-(1-(2-(2-(2-(4-(4-(2-(2,6-dioxopiperidin-3-yl)-1,3-dioxoisoindolin-5-yl)piperazin-1-yl)butanamido)ethoxy)ethoxy)acetyl)piperidin-4-yl)-2-(4-phenoxyphenyl)-4,5,6,7-tetrahydropyrazolo[1,5-a]pyrimidine-3-carboxamide], NC(=O)c1c(-c2ccc(Oc3ccccc3)cc2)nn2c1NCC[C@H]2C1CCN(C(=O)CCN2CCN(C(=O)CNc3ccc4c(c3)C(=O)N(C3CCC(=O)NC3=O)C4=O)CC2)CC1 (stereo partly drawn) [Example 63, (7S)-7-(1-(3-(4-((2-(2,6-dioxopiperidin-3-yl)-1,3-dioxoisoindolin-5-yl)glycyl)piperazin-1-yl)propanoyl)piperidin-4-yl)-2-(4-phenoxyphenyl)-4,5,6,7-tetrahydropyrazolo[1,5-a]pyrimidine-3-carboxamide] is 220-fold lower in DC50: 624 nM for the first, 2.9 nM for the second.

NC(=O)c1c(-c2ccc(Oc3ccccc3)cc2)nn2c1NCC[C@H]2C1CCN(C2CCN(Cc3ccc(C(=O)NCCNc4cccc5c4C(=O)N(C4CCC(=O)NC4=O)C5=O)cc3)CC2)CC1 (stereo partly drawn) [Example 43, (7S)-7-(1′-(4-((2-((2-(2,6-dioxopiperidin-3-yl)-1,3-dioxoisoindolin-4-yl)amino)ethyl)carbamoyl)benzyl)-[1, 4′-bipiperidin]-4-yl)-2-(4-phenoxyphenyl)-4,5,6,7-tetrahydropyrazolo[1,5-a]pyrimidine-3-carboxamide] and CN(/C=C/C(=O)N1CCC([C@@H]2CCNc3c(C(N)=O)c(-c4ccc(Oc5ccccc5)cc4)nn32)CC1)CCNc1cccc2c1C(=O)N(C1CCC(=O)NC1=O)C2=O (stereo partly drawn) [Example 49, (7S)-7-(1-((E)-3-((2-((2-(2,6-dioxopiperidin-3-yl)-1,3-dioxoisoindolin-4-yl)amino)ethyl)(methyl)amino)acryloyl)piperidin-4-yl)-2-(4-phenoxyphenyl)-4,5,6,7-tetrahydropyrazolo[1,5-a]pyrimidine-3-carboxamide] cannot be ordered by DC50: > 10000 nM for the first, > 10000 nM for the second.

First: NC(=O)c1c(-c2ccc(Oc3ccccc3)cc2)nn2c1NCC[C@H]2C1CCN(C(=O)CCN2CCN(c3ccc(CNC(=O)CNc4cccc5c4CN(C4CCC(=O)NC4=O)C5=O)cc3)CC2)CC1 (stereo partly drawn) [Example 45, (7S)-7-(1-(3-(4-(4-((2-((2-(2,6-dioxopiperidin-3-yl)-1-oxoisoindolin-4-yl)amino)acetamido)methyl)phenyl)piperazin-1-yl)propanoyl)piperidin-4-yl)-2-(4-phenoxyphenyl)-4,5,6,7-tetrahydropyrazolo[1,5-a]pyrimidine-3-carboxamide]
Second: NC(=O)c1c(-c2ccc(Oc3ccccc3)cc2)nn2c1NCC[C@H]2C1CCN(C(=O)CCN2CCN(c3ccc(CNC(=O)CCN4C(=O)CCC(N5Cc6c(N)cccc6C5=O)C4=O)cc3)CC2)CC1 (stereo partly drawn) [Example 56, (7S)-7-(1-(3-(4-(4-((3-(3-(4-amino-1-oxoisoindolin-2-yl)-2,6-dioxopiperidin-1-yl)propanamido)methyl)phenyl)piperazin-1-yl)propanoyl)piperidin-4-yl)-2-(4-phenoxyphenyl)-4,5,6,7-tetrahydropyrazolo[1,5-a]pyrimidine-3-carboxamide]
The DC50 of the first is 6.2-fold lower: 382 nM for the first, 2360 nM for the second.

Compared with CN(C/C=C/C(=O)N1CCC([C@@H]2CCNc3c(C(N)=O)c(-c4ccc(Oc5ccccc5)cc4)nn32)CC1)CCCCCNc1cccc2c1CN(C1CCC(=O)NC1=O)C2=O (stereo partly drawn) [Example 46, (7S)-7-(1-((E)-4-((5-((2-(2,6-dioxopiperidin-3-yl)-1-oxoisoindolin-4-yl)amino)pentyl)(methyl)amino)but-2-enoyl)piperidin-4-yl)-2-(4-phenoxyphenyl)-4,5,6,7-tetrahydropyrazolo[1,5-a]pyrimidine-3-carboxamide], CN(C/C=C/C(=O)N1CCC([C@@H]2CCNc3c(C(N)=O)c(-c4ccc(Oc5ccccc5)cc4)nn32)CC1)CCCCCCNc1cccc2c1CN(C1CCC(=O)NC1=O)C2=O (stereo partly drawn) [Example 47, (7S)-7-(1-((E)-4-((6-((2-(2,6-dioxopiperidin-3-yl)-1-oxoisoindolin-4-yl)amino)hexyl)(methyl)amino)but-2-enoyl)piperidin-4-yl)-2-(4-phenoxyphenyl)-4,5,6,7-tetrahydropyrazolo[1,5-a]pyrimidine-3-carboxamide] is 1.6-fold higher in DC50: 198 nM for the first, 315 nM for the second.

CN(C/C=C/C(=O)N1CCC([C@@H]2CCNc3c(C(N)=O)c(-c4ccc(Oc5ccccc5)cc4)nn32)CC1)CCCCCCN1C(=O)CCC(N2C(=O)c3cccc(N)c3C2=O)C1=O (stereo partly drawn) [Example 50, (7S)-7-(1-((E)-4-((6-(3-(4-amino-1,3-dioxoisoindolin-2-yl)-2,6-dioxopiperidin-1-yl)hexyl)(methyl)amino)but-2-enoyl)piperidin-4-yl)-2-(4-phenoxyphenyl)-4,5,6,7-tetrahydropyrazolo[1,5-a]pyrimidine-3-carboxamide] and CN(C/C=C/C(=O)N1CCC([C@@H]2CCNc3c(C(N)=O)c(-c4ccc(Oc5ccccc5)cc4)nn32)CC1)CCCCCCN1C(=O)CCC(N2Cc3c(N)cccc3C2=O)C1=O (stereo partly drawn) [Example 51, (7S)-7-(1-((E)-4-((6-(3-(4-amino-1-oxoisoindolin-2-yl)-2,6-dioxopiperidin-1-yl)hexyl)(methyl)amino)but-2-enoyl)piperidin-4-yl)-2-(4-phenoxyphenyl)-4,5,6,7-tetrahydropyrazolo[1,5-a]pyrimidine-3-carboxamide] cannot be ordered by DC50: > 10000 nM for the first, > 10000 nM for the second.

Compared with CN(C/C=C/C(=O)N1CCC([C@@H]2CCNc3c(C(N)=O)c(-c4ccc(Oc5ccccc5)cc4)nn32)CC1)CCOCCOCCOCCN1C(=O)CCC(N2Cc3c(N)cccc3C2=O)C1=O (stereo partly drawn) [Example 52, (7S)-7-(1-((E)-1-(3-(4-amino-1-oxoisoindolin-2-yl)-2,6-dioxopiperidin-1-yl)-12-methyl-3,6,9-trioxa-12-azahexadec-14-en-16-oyl)piperidin-4-yl)-2-(4-phenoxyphenyl)-4,5,6,7-tetrahydropyrazolo[1,5-a]pyrimidine-3-carboxamide], CN(C/C=C/C(=O)N1CCC([C@@H]2CCNc3c(C(N)=O)c(-c4ccc(Oc5ccccc5)cc4)nn32)CC1)CCOCCOCCN1C(=O)CCC(N2Cc3c(N)cccc3C2=O)C1=O (stereo partly drawn) [Example 55, (7S)-7-(1-((E)-4-((2-(2-(2-(3-(4-amino-1-oxoisoindolin-2-yl)-2,6-dioxopiperidin-1-yl)ethoxy)ethoxy)ethyl)(methyl)amino)but-2-enoyl)piperidin-4-yl)-2-(4-phenoxyphenyl)-4,5,6,7-tetrahydropyrazolo[1,5-a]pyrimidine-3-carboxamide] is 2.7-fold higher in DC50: 144 nM for the first, 382 nM for the second.

Going from CN(C/C=C/C(=O)N1CCC([C@@H]2CCNc3c(C(N)=O)c(-c4ccc(Oc5ccccc5)cc4)nn32)CC1)CCCN1C(=O)CCC(N2Cc3c(N)cccc3C2=O)C1=O (stereo partly drawn) [Example 54, (7S)-7-(1-((E)-4-((3-(3-(4-amino-1-oxoisoindolin-2-yl)-2,6-dioxopiperidin-1-yl)propyl)(methyl)amino)but-2-enoyl)piperidin-4-yl)-2-(4-phenoxyphenyl)-4,5,6,7-tetrahydropyrazolo[1,5-a]pyrimidine-3-carboxamide] to NC(=O)c1c(-c2ccc(Oc3ccccc3)cc2)nn2c1NCC[C@H]2C1CCN(C(=O)CCCc2ccc(NC(=O)CNc3ccc4c(c3)C(=O)N(C3CCC(=O)NC3=O)C4=O)cc2)CC1 (stereo partly drawn) [Example 58, (7S)-7-(1-(4-(4-(2-((2-(2,6-dioxopiperidin-3-yl)-1,3-dioxoisoindolin-5-yl)amino)acetamido)phenyl)butanoyl)piperidin-4-yl)-2-(4-phenoxyphenyl)-4,5,6,7-tetrahydropyrazolo[1,5-a] pyrimidine-3-carboxamide], the DC50 falls from 428 nM to 28 nM (15-fold).

NC(=O)c1c(-c2ccc(Oc3ccccc3)cc2)nn2c1NCC[C@H]2C1CCN(C(=O)CCc2ccc(NC(=O)CNc3ccc4c(c3)C(=O)N(C3CCC(=O)NC3=O)C4=O)cc2)CC1 (stereo partly drawn) [Example 57, (7S)-7-(1-(3-(4-(2-((2-(2,6-dioxopiperidin-3-yl)-1,3-dioxoisoindolin-5-yl)amino)acetamido)phenyl)propanoyl)piperidin-4-yl)-2-(4-phenoxyphenyl)-4,5,6,7-tetrahydropyrazolo[1,5-a] pyrimidine-3-carboxamide] was tested, and the DC50 was > 10000 nM.
